24 molecules from patent publication US7799821B2, “Therapeutic compounds” (Allergan, Inc., priority 2004, dated 2010) can be followed below.

Each structure is given as a SMILES string.

The first test deals with T1, hEP2/Gqs5 (Homo sapiens, UniProt P43116).
T1 construct: expressed in transfected cells; host or cells: HEK-293(EBNA)
T1 sequence (P43116 whole entry): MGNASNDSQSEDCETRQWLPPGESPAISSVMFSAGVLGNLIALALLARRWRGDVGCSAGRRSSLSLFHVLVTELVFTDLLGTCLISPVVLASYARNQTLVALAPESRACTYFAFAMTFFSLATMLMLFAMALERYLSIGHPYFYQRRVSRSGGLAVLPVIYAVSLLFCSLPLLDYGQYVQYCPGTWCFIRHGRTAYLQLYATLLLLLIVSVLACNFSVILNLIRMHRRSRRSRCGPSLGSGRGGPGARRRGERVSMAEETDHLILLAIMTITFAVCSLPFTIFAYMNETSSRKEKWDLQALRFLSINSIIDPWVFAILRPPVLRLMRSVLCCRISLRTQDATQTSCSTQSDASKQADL
Description: FLIPR calcium signal, hEP2. As to conditions: FLIPR Ca2+ signal, HEK-293(EBNA); read-out: FUNCTIONAL EC50 HEP2. The class given is cell-based. On the procedure:
HEK-293(EBNA) cells, stably expressing one type or subtype of recombinant human prostaglandin receptors (prostaglandin receptors expressed: hDP/Gqs5; hEP1; hEP2/Gqs5; hEP3A/Gqi5; hEP4/Gqs5; hFP; hIP; hTP), were cultured in 100 mm culture dishes in high-glucose DMEM medium containing 10% fetal bovine serum, 2 mM 1-glutamine, 250 μg/ml geneticin (G418) and 200 μg/ml hygromycin B as selection markers, and 100 units/ml penicillin G, 100 μg/ml streptomycin and 0.25 μg/ml amphotericin B. • (b) Calcium Signal Studies on the FLIPR™
Cells were seeded at a density of 5×10^4 cells per well in Biocoat® Poly-D-lysine-coated black-wall, clear-bottom 96-well plates (Becton-Dickinson) and allowed to attach overnight in an incubator at 37° C. Cells were then washed two times with HBSS-HEPES buffer (Hanks Balanced Salt Solution without bicarbonate and phenol red, 20 mM HEPES, pH 7.4) using a Denley Cellwash plate washer (Labsystems). After 45 minutes of dye-loading in the dark, using the calcium-sensitive dye Fluo-4 AM at a final concentration of 2 μM, plates were washed four times with HBSS-HEPES buffer to remove excess dye leaving 100 μl in each well. Plates were re-equilibrated to 37° C. for a few minutes.
Cells were excited with an Argon laser at 488 nm, and emission was measured through a 510-570 nm bandwidth emission filter (FLIPR™, Molecular Devices, Sunnyvale, Calif.). Drug solution was added in a 50 μl volume to each well to give the desired final concentration. The peak increase in fluorescence intensity was recorded for each well. On each plate, four wells each served as negative (HBSS-HEPES buffer) and positive controls (standard agonists: BW245C (hDP); PGE2 (hEP1; hEP2/Gqs5; hEP3A/Gqi5; hEP4/Gqs5); PGF2α (hFP); carbacyclin (hIP); U-46619 (hTP), depending on receptor). The peak fluorescence change in each drug-containing well was then expressed relative to the controls.
Compounds were tested in a high-throughput (HTS) or concentration-response (CoRe) format. In the HTS format, forty-four compounds per plate were examined in duplicates at a concentration of 10^−5 M. To generate concentration-response curves, four compounds per plate were tested in duplicates in a concentration range between 10^−5 and 10^−11 M. The duplicate values were averaged. In either, HTS or CoRe format each compound was tested on at least 3 separate plates using cells from different passages to give an n≧3.
Take `CCCC1(C(O)c2cccc([C@H]3[C@H](O)CC(=O)[C@@H]3CCCCCCC(=O)O)c2)CCC1` (stereo partly drawn): the half-maximal effective concentration (EC50) was determined as 5.26 µM.

For `CCCC1(C(O)c2ccc([C@H]3[C@H](O)CC(=O)[C@@H]3CCCCCCC(=O)OC)cc2)CCC1` (stereo partly drawn), the concentration giving a half-maximal response (EC50) was greater than 10 µM.

Regarding `CCCC1(C(O)c2ccc([C@@H]3[C@@H](C/C=C\CCCC(=O)OC)[C@H](Cl)C[C@H]3O)cc2)CCC1` (stereo partly drawn), the EC50 is greater than 10 µM.

With `CCCC1(C(O)c2ccc([C@H]3[C@H](O)CC(=O)[C@@H]3C/C=C\CCCC(=O)O)cc2)CCC1` (stereo partly drawn), the EC50 worked out at 3.72 µM.

Regarding `CCCC1(C(O)c2ccc([C@H]3[C@H](O)CC(=O)[C@@H]3CCCCCCC(=O)O)cc2)CCC1` (stereo partly drawn), the concentration giving a half-maximal response (EC50) stood at 0.635 µM.

Take `CCCC1(C(O)c2ccc([C@@H]3[C@@H](C/C=C\CCCC(=O)O)[C@H](Cl)C[C@H]3O)cc2)CCC1` (stereo partly drawn): the 50% effective concentration (EC50) was 2.27 µM.

As to `CCCC1(C(O)c2ccc([C@@H]3[C@@H](CCCCCCC(=O)O)[C@H](Cl)C[C@H]3O)cc2)CCC1` (stereo partly drawn), the EC50 was 0.546 µM.

`COC(=O)CCCCCC[C@@H]1[C@@H](c2ccc(C(C)(C)C)cc2)[C@H](O)C[C@H]1Cl`: the EC50 was greater than 10 µM.

As to `O=C(O)CCC/C=C\C[C@H]1C(=O)C[C@@H](O)[C@@H]1c1ccc(C(O)C2CCCCC2)cc1` (stereo partly drawn), the 50% effective concentration (EC50) is greater than 10 µM.

As to `COC(=O)CCCCCC[C@H]1C(=O)C[C@@H](O)[C@@H]1c1ccc(C(O)C2CCCCC2)cc1` (stereo partly drawn), the EC50 is greater than 10 µM.

In the case of `O=C(O)CCCCCC[C@H]1C(=O)C[C@@H](O)[C@@H]1c1ccc(C(O)C2CCCCC2)cc1` (stereo partly drawn), the EC50 was 0.45 µM.

As for `O=C(O)CCCCCC[C@@H]1[C@@H](c2ccc(C(O)C3CCCCC3)cc2)[C@H](O)C[C@H]1Cl` (stereo partly drawn), the EC50 was 2.81 µM.

`O=C(O)COC/C=C\C[C@@H]1[C@@H](c2ccc(C(O)C3CCCCC3)cc2)[C@H](O)C[C@H]1Cl` (stereo partly drawn): the concentration for a half-maximal effect (EC50) came to 3.84 µM.

For the molecule `O=C(O)COCCCC[C@@H]1[C@@H](c2ccc(C(O)C3CCCCC3)cc2)[C@H](O)C[C@H]1Cl` (stereo partly drawn), the EC50 was found to be 20.8 µM.

Consider `O=C(O)COCC#CCC1[C@H](Cl)C[C@@H](O)[C@@H]1c1ccc(C(O)C2CCCCC2)cc1` (stereo partly drawn), for which the EC50 turned out to be 1.55 µM.

For the molecule `O=C(O)CCC/C=C\C[C@H]1C(=O)C[C@@H](O)[C@@H]1c1ccc(C2(O)CCC2)cc1`, the 50% effective concentration (EC50) is greater than 10 µM.

For `COC(=O)CCC/C=C\C[C@@H]1[C@@H](c2ccc(C3(O)CCC3)cc2)[C@H](O)C[C@H]1Cl`, the EC50 was greater than 10 µM.

With `COC(=O)CCCCCC[C@H]1C(=O)C[C@@H](O)[C@@H]1c1ccc(C)cc1`, the EC50 is greater than 10 µM.

For `COC(=O)CCC/C=C\C[C@@H]1[C@@H](c2ccc(CO)cc2)[C@H](O)C[C@H]1Cl`, the EC50 was greater than 10 µM.

Regarding `O=C(O)CCCCCC[C@@H]1[C@@H](c2ccc(CO)cc2)[C@H](O)C[C@H]1Cl`, the 50% effective concentration (EC50) was greater than 10 µM.

Turning to `O=C(O)CCC/C=C\C[C@@H]1[C@@H](c2ccc(C(O)C3CCCCC3)cc2)[C@H](O)C[C@H]1Cl` (stereo partly drawn) [drawing 77], the 50% effective concentration (EC50) is 0.392 µM.

In the case of `CC(C)(CO)c1ccc([C@@H]2[C@@H](C/C=C\CCCC(=O)O)[C@H](Cl)C[C@H]2O)cc1` [drawing 114], the half-maximal effective concentration (EC50) is greater than 10 µM.

The same test, now with this note: read-out: FUNCTIONAL Ca2+ EC50 HEP2.
In the case of `COC(=O)CCC/C=C\C[C@H]1C(=O)CC[C@@H]1c1ccc([C@H](O)C2CCCCC2)cc1`, the EC50 was greater than 10 µM.

For the molecule `O=C(O)CCCCCC[C@H]1C(=O)CC[C@@H]1c1ccc(C2(O)CCC2)cc1`, the EC50 is greater than 10 µM.
